Patent US20150291625A1 (PFIZER INC., priority 2012, published 2015)
Where “and” joins values, the source holds several entries; their conditions need not be identical. Identical values can stand only once. Counter-ions that a name gives are not always drawn.

Key:
D1 [1] = molecular target: T1, D1 (Homo sapiens, UniProt P21728); assay: D1 cAMP HTRF assay (HEK293T/hD1#1 stable cell line); format: cell-based; set-up: expressed in transfected cells
Procedure, shortened: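 Cells from a stable human D1 HEK293T line in PBS/0.5 μM IBMX were incubated with compound for 30 min at room temperature, and cAMP was then detected by competitive HTRF (1 h, room temperature). A cAMP standard curve converted ratios to cAMP, giving ratio-based and cAMP-based EC50 values.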

D1 [2] = molecular target: T1, D1; assay: Human D1 receptor binding assay ([3H]-SCH23390 competition); conditions: Human D1 Receptor Binding, Ki (nM), Geometric mean of 2-4 determinations, a: >=5 determinations, d: single determination

T1 sequence (P21728 whole entry): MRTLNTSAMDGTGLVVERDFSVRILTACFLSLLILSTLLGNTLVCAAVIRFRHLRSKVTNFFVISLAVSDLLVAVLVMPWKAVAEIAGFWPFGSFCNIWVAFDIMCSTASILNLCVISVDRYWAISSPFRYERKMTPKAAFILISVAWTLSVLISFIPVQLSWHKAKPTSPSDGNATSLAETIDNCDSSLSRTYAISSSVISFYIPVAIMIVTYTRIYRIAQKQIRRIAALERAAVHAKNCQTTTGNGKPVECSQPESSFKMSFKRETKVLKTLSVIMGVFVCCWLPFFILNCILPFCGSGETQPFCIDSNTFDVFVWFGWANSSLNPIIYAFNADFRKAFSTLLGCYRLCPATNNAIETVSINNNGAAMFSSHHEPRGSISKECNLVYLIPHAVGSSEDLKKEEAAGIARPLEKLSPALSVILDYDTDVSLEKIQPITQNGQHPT

SMILES | EC50 (D1 [1]) | Ki (D1 [2]) [nM]
Cc1cc(Oc2nccc3occc23)ccc1-c1c(C)cccc1C [Example 89, 4-[(2,2′,6′-trimethylbiphenyl-4-yl)oxy]furo[3,2-c]pyridine, trifluoroacetate salt] | 1860 nM | 123
Cc1ncccc1-c1ccc(Oc2nccc3occc23)cc1F [Example 92, 4-[3-fluoro-4-(2-methylpyridin-3-yl)phenoxy]furo[3,2-c]pyridine] | 746 nM | 25.2
Cc1ncc(N)nc1-c1ccc(Oc2nccc3occc23)cc1F [Example 93, 6-[2-fluoro-4-(furo[3,2-c]pyridin-4-yloxy)phenyl]-5-methylpyrazin-2-amine] | 761 nM | 88
COc1cc(Oc2nccc3occc23)ccc1-c1c(OC)ccc2cnccc12 [Example 94, 5-[4-(furo[3,2-c]pyridin-4-yloxy)-2-methoxyphenyl]-6-methoxyisoquinoline, formate salt] | 837 nM | 7.08
Cc1cc(Oc2nccc3occc23)ccc1-c1c(C)ncnc1N1CCC1 [Example 95, 4-{4-[4-(azetidin-1-yl)-6-methylpyrimidin-5-yl]-3-methylphenoxy}furo[3,2-c]pyridine, formate salt] | 444 nM | 27.3
Cc1ncnc(C)c1-c1ccc(Oc2nccc3occc23)c(C)c1C [Example 99, 4-[4-(4,6-dimethylpyrimidin-5-yl)-2,3-dimethylphenoxy]furo[3,2-c]pyridine] | 3040 nM and > 9950 nM | 1370
Cc1ncc2nccn2c1-c1ccc(Oc2nccc3occc23)cc1C(F)(F)F [Example 100, 5-[4-(furo[3,2-c]pyridin-4-yloxy)-2-(trifluoromethyl)phenyl]-6-methylimidazo[1,2-a]pyrazine] | 112 nM and 580 nM | 11
Cc1cc(-c2c(C)ncc3nccn23)c(C)cc1Oc1nccc2occc12 [Example 101, 5-[4-(furo[3,2-c]pyridin-4-yloxy)-2,5-dimethylphenyl]-6-methylimidazo[1,2-a]pyrazine] | 3450 nM | 431

More lines, in order of falling Ki (D1 [2]), values ahead:

EC50 (D1 [1]) | Ki (D1 [2]) [nM] | SMILES
710 nM and 1520 nM | 117 | Cc1cc(Oc2nccc3occc23)ccc1-c1cccnc1C1CC1 [Example 88, 4-[4-(2-cyclopropylpyridin-3-yl)-3-methylphenoxy]furo[3,2-c]pyridine]
580 nM | 61.2 | Cc1ncc(N)nc1-c1ccc(Oc2nccc3occc23)cc1C(F)(F)F [Example 91, 6-[4-(furo[3,2-c]pyridin-4-yloxy)-2-(trifluoromethyl)phenyl]-5-methylpyrazin-2-amine]
956 nM | 28.6 | Cc1cc(Oc2nccc3occc23)ccc1-c1c(C)ncnc1N1CCC(F)C1 (stereo not drawn) [Example 98, 4-{4-[4-(3-fluoropyrrolidin-1-yl)-6-methylpyrimidin-5-yl]-3-methylphenoxy}furo[3,2-c]pyridine, trifluoroacetate salt]
448 nM | 25.4 | Cc1nc(N)ccc1-c1ccc(Oc2nccc3occc23)cc1Cl [Example 90, 5-[2-chloro-4-(furo[3,2-c]pyridin-4-yloxy)phenyl]-6-methylpyridin-2-amine]
306 nM | 24.5 | Cc1cc(Oc2nccc3occc23)ccc1-c1c(C)ncnc1N1Cc2cn[nH]c2C1 [Example 96, 4-{4-[4-(4,6-dihydropyrrolo[3,4-c]pyrazol-5(1H)-yl)-6-methylpyrimidin-5-yl]-3-methylphenoxy}furo[3,2-c]pyridine, trifluoroacetate salt]
600 nM and 482 nM | 22.5 | Cc1cc(Oc2nccc3occc23)ccc1-c1c(C)ncnc1N(C)C [Example 87, 5-[4-(furo[3,2-c]pyridin-4-yloxy)-2-methylphenyl]-N,N,6-trimethylpyrimidin-4-amine]
205 nM | 7.52 | Cc1cc(Oc2nccc3occc23)ccc1-c1c(C)ncnc1N1CC(F)C1 [Example 97, 4-{4-[4-(3-fluoroazetidin-1-yl)-6-methylpyrimidin-5-yl]-3-methylphenoxy}furo[3,2-c]pyridine, formate salt]
